Experimental data taken from patent US20090280511A1, “Methods for selecting candidate peptides presented on the surface of cancer cells following their binding to MHC class I molecules” (priority 2008, published 2009).
Residues, ends and D or L forms follow the SMILES beside them. *: point of attachment. Cbz = O=C(OCc1ccccc1)*

How the values were obtained:
Type in all cases: cell-based, mouse
DC2.4 cells [1] = experiment: H-2Kb/pOV8 presentation after introducing proteins from outside into the cytosol with Chariot
Text: The presentation of H-2Kb/pOV8 was examined when pOV8-YFP and YFP-pOV8 were introduced directly from the outside into the cytosol of DC2.4 cells.
Chariot was used as a reagent for forcibly making the cell membrane permeable to proteins in solution. It was again examined whether the presentation of pOV8 to H-2Kb was improved by fusion of pOV8 to the N-terminus of YFP as compared to fusion to the C-terminus. The cells were heated in the presence of any of YFP, pOV8-YFP, and YFP-pOV8, and the cell membrane permeabilizing agent Chariot. After washing the cells, a whole cell extract was prepared. After SDS-PAGE, Western blotting was performed using anti-YFP antibody (inset of FIG. 5). In addition, the expression of H-2Kb/pOV8 in these cells was measured using the 25D1.16 antibody.

DC2.4 cells [2] = experiment: Effect of inhibitors on H-2Kb/pOV8 expression after acid wash
Experimental: The DC2.4 cells were washed with acid 12 hours after transfection as in FIG. 3. The inhibitors were added at 0 hours (time 0). After 6 hours, the cells were recovered and examined.
The effect of various inhibitors on H-2Kb/pOV8 expression was examined. […] DC2.4 cells were transfected with DNA and after two hours, excess DNA was removed and the cells were further incubated for 12 hours. The cells were washed with acid and the indicated inhibitor was added at the same time. After six hours, H-2Kb/pOV8 expression was measured using 25D1.16 antibody.
Other inhibitors were examined as in the experiment described in [8] above.
The same system in [8] above was used to examine the effect of non-natural amino acids such as canavanine or azetidine. It is known that proteins incorporating non-natural amino acids are easily degraded since they fail to fold properly.

DC2.4 cells [3] = experiment: H-2Kb/pOV8 expression with or without IFNγ treatment, 25D1.16 antibody; settings: DC2.4 cells expressing pOV8-YFP or YFP-pOV8
Text: First, DC2.4 cells expressing pOV8-YFP and YFP-pOV8 were respectively treated with IFNγ and analyzed for H-2Kb/pOV8 expression using the 25D1.16 antibody.
Cellular IFNγ treatment causes an increase in class I antigen expression, and the enormous immunological significance of this phenomenon has been elucidated. The principle of N-terminal epitope dominance should play a significant role in direct antigen presentation in the living body, since it brings about an expression difference similar to that which results from the presence or absence of IFNγ treatment.
In the table, the term “whole” means the sum of H-2Kb/pOV8 expression for all cells expressing YFP. The term “at 10^2 fluorescent units” means H-2Kb/pOV8 expression for cells expressing 10^2 fluorescent units of YFP.

Compound | effect of inhibitor on H-2Kb/pOV8 expression (presentation) (DC2.4 cells [2]) | also measured
CC(C)C[C@@H](C=O)NC(=O)[C@H](CC(C)C)NC(=O)[C@H](CC(C)C)NC(=O)OCc1ccccc1 [MG132] (Cbz-Leu-Leu-Leu-aldehyde) |  | effect on antigen presentation of OVA administered with Chariot (DC2.4 cells [1]; OVA plus Chariot): reduced antigen presentation
COc1ccc(C[C@H]2NC[C@H](O)[C@H]2OC(C)=O)cc1 [anisomycin] | inhibited | 
C1CNC1 [azetidine] | no effect on antigen presentation | 
N=C(N)NOCC[C@H](N)C(=O)O [canavanine] | no variation | 
CCN(CC)CCCC(C)Nc1ccnc2cc(Cl)ccc12 (centres unmarked) [chloroquine] | not inhibited | 
IFNγ: cytokine used to treat cells; known to increase MHC class I antigen expression |  | effect of IFNγ treatment on H-2Kb/pOV8 expression (DC2.4 cells [3]): increased
OVA: full-length OVA antigen protein containing the pOV8 epitope |  | presentation of H-2Kb/pOV8 (DC2.4 cells [1]; protein administered to cells in the presence of Chariot): slight presentation of H-2Kb/pOV8 was observed
a-amanitin | Recovery in H-2Kb/pOV8 expression was not observed | 
